# Patent US20250353863A1, “TRICYCLIC SPIROLACTAM COMPOUNDS WITH ANTIMYCOBACTERIAL ACTIVITY” (priority 2022, published 2025)
# Columns and labels:
# M. abscessus S = assay: MIC analysis of non-Mtb mycobacteria; type: cell-based, Mycobacterium abscessus; conditions: Mycobacteroides abscessus, 48 h; 2 days incubation
# M. smegmatis = assay: MIC analysis of non-Mtb mycobacteria; type: cell-based; conditions: Mycolicibacterium smegmatis, 48 h; 2 days incubation
# Mtb H37Rv-WT = assay: MIC by resazurin microtiter assay (REMA) against Mtb; type: cell-based; conditions: Mycobacterium tuberculosis, REMA, read-out: MIC M. tuberculosis
# BCG = assay: microbe, parasite or virus in culture; type: cell-based; conditions: Mycobacterium tuberculosis variant bovis BCG, read-out: MIC BCG
# [1] = target: NdhA-M. tb (recombinant MBP-NdhA) (Mycobacterium tuberculosis (strain ATCC 25618 / H37Rv), UniProt P95200); assay: Biochemical evaluation of MBP-NdhA inhibition (NADH oxidation with menadione)
# M. abscessus R = assay: MIC analysis of non-Mtb mycobacteria; type: cell-based, Mycobacterium abscessus; conditions: Mycobacteroides abscessus, 48 h; 2 days incubation
# M. avium = assay: MIC analysis of non-Mtb mycobacteria; type: cell-based; conditions: Mycobacterium avium, 120 h; 5 days incubation
# M. marinum = assay: MIC analysis of non-Mtb mycobacteria; type: cell-based; conditions: Mycobacterium marinum, 120 h; 5 days, 30° C., visual inspection
# [2] = target: purified Ndh (Mtb recombinant MBP tagged Ndh-2 enzyme, MBP-Ndh) (Mycobacterium tuberculosis (strain ATCC 25618 / H37Rv), UniProt P95160); assay: Biochemical evaluation of MBP-Ndh inhibition (NADH oxidation with menadione); conditions: read-out: IC50 Ndh-M. tb
# purified Ndh (Mtb recombinant MBP tagged Ndh-2 enzyme, MBP-Ndh), sequence (P95160 whole entry, looked up): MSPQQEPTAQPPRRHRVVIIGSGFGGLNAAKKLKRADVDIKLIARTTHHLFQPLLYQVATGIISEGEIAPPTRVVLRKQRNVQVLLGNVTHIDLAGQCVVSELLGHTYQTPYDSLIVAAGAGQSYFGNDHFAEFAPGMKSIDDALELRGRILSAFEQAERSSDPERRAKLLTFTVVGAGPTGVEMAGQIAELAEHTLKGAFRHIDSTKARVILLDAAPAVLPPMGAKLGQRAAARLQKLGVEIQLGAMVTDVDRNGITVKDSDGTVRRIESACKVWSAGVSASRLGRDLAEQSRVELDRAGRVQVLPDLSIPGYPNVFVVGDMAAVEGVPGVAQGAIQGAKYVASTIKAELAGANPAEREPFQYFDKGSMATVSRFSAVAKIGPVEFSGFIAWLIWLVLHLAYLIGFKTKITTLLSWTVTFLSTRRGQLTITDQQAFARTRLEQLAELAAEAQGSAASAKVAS
# NdhA-M. tb (recombinant MBP-NdhA), sequence (P95200 whole entry, looked up): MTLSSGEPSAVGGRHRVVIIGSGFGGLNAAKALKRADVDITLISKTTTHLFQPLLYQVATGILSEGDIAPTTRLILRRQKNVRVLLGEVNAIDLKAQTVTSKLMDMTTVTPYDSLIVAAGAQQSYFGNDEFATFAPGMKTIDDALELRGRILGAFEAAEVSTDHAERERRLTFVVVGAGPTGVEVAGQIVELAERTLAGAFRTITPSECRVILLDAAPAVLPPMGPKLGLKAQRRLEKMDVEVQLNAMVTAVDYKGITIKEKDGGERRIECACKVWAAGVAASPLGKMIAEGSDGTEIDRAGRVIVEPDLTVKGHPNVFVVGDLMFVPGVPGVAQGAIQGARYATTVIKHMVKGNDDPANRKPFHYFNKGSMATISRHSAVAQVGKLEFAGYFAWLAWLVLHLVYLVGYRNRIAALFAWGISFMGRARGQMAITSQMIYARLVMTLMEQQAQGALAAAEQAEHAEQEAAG
SMILES,MIC (M. abscessus S) [µM],MIC (M. smegmatis) [µM],MIC (Mtb H37Rv-WT) [µM],MIC (BCG) [µM],IC50 [1] [µM],MIC (M. abscessus R) [µM],MIC (M. avium) [µM],MIC (M. marinum) [µM],IC50 [2] [µM]
"CC(C)[C@H]1CO[C@]23CCN(Cc4ccc(OC(F)(F)F)cc4)C[C@H]2CCC(=O)N13 [Example 3, (3S,7aR,11aR)-3-isopropyl-9-[[4-(trifluoromethoxy)phenyl]methyl]-2,3,6,7,7a,8,10,11-octahyooxazolo[2,3-j][1,6]naphthyridin-5-one]",1 to 10,1 to 10,< 1,1 to 10,< 0.1,1 to 10,< 1,< 1,
"CC(C)[C@H]1CO[C@]23CCN(Cc4ccc(Cl)cc4)C[C@H]2CCC(=O)N13 [Example 4, (3S,7aR,11aR)-9-[(4-chlorophenyl)methyl]-3-isopropyl-2,3,6,7,7a,8,10,11-octahydrooxazolo[2,3-j][1,6]naphthyridin-5-one]",,,< 1,,< 0.1,,,,< 0.1
"CC(C)[C@H]1CO[C@]23CCN(Cc4ccc(Cl)c(C(F)(F)F)c4)C[C@H]2CCC(=O)N13 [Example 9, (3S,7aR,11aR)-9-[[4-chloro-3-(trifluoromethyl)phenyl]methyl]-3-isopropyl-2,3,6,7,7a,8,10,11-octahydrooxazolo[2,3-j][1,6]naphthyridin-5-one]",1 to 10,1 to 10,< 1,1 to 10,,1 to 10,< 1,< 1,< 0.1
"CC(C)[C@H]1CO[C@]23CCN(Cc4ccc(C(F)(F)F)cc4)C[C@H]2CCC(=O)N13 [Example 2, (3S,7aR,11aR)-3-isopropyl-9-[[4-(trifluoromethyl)phenyl]methyl]-2,3,6,7,7a,8,10,11-octahydrooxazolo[2,3-j][1,6]naphthyridin-5-one]",1 to 10,1 to 10,< 1,1 to 10,< 0.1,1 to 10,< 1,< 1,
